Laboratory results: US4459290A, “C-23-Modified derivatives of OMT, pharmaceutical compositions and method of use” (priority 1982, dated 1984)
In brackets after ≈: the same amount, converted by molar mass. Like-named read-outs stand apart in the source and are kept apart here.

Assays:
[1] = tested on: Pasteurella hemolytica 41D; assay: MIC, broth-dilution microtiter test (Table VII); type: cell-based; settings: Pasteurella, P. hemolytica 41D, read-out: MIC
Method in brief: (§1)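 Growth inhibition in liquid medium, in a routine microtiter broth-dilution series, gave the MIC against staphylococci and pasteurellae; the gram-negative enteric strain was tested by conventional agar dilution instead.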

Mycoplasma synoviae = assay: MIC, broth-dilution microtiter test (Table VII); type: cell-based; settings: Mycoplasmopsis synoviae; M. synoviae; broth-dilution microtiter; read-out: MIC
Experimental: (§2) Especially noteworthy is the improved activity against gram-negative bacteria for several derivatives when compared to the activity of OMT. […] The MIC's in Tables V and VI were determined by standard agar-dilution assays. The MIC's in Table VII were obtained using a conventional broth-dilution microtiter test.

Mycoplasma hyorhinis = assay: MIC, broth-dilution microtiter test (Table VII); type: cell-based; settings: M. hyorhinis; broth-dilution microtiter; read-out: MIC
Experimental: as §2

[2] = tested on: Pasteurella hemolytica 23C; assay: MIC, broth-dilution microtiter test (Table VII); type: cell-based; settings: Pasteurella, P. hemolytica 23C, read-out: MIC
Method in brief: as §1

[3] = tested on: Streptococcus pyogenes C203; assay: ED50 in mice experimentally infected with S. pyogenes C203 (Table VIII); type: in vivo
Experimental: The C-23 modified derivatives of OMT of this invention have shown in vivo antimicrobial activity against experimental infections. When two doses of test compound were administered to mice experimentally infected with a gram-positive bacterium, S. pyogenes C203, the activity observed was measured as an ED50 value [effective dose in mg/kg to protect 50% of the test animals: see Warren Wick, et al., J. Bacteriol. 81, 233-235 (1961)].

[4] = tested on: Pseudomonas aeruginosa X239; assay: MIC, standard agar-dilution assay (Table VI); type: cell-based
Experimental: as §2

Salmonella typhi 1335 = assay: MIC, standard agar-dilution assay (Table VI); type: cell-based; settings: Salmonella enterica
Experimental: as §2

[5] = tested on: Klebsiella pneumoniae X68; assay: MIC, standard agar-dilution assay (Table VI); type: cell-based
Experimental: as §2

Proteus morganii PR15 = assay: MIC, standard agar-dilution assay (Table VI); type: cell-based; settings: Morganella morganii, PR15
Experimental: as §2

Serratia marcescens SE3 = assay: MIC, standard agar-dilution assay (Table VI); type: cell-based
Experimental: as §2

Serratia marcescens X99 = assay: MIC, standard agar-dilution assay (Table VI); type: cell-based
Experimental: as §2

[6] = tested on: Enterobacter aerogenes C32; assay: MIC, standard agar-dilution assay (Table VI); type: cell-based; settings: Klebsiella aerogenes
Experimental: as §2

Proteus rettgeri PR7 = assay: MIC, standard agar-dilution assay (Table VI); type: cell-based; settings: Providencia rettgeri; P. rettgeri PR7; agar dilution; read-out: MIC
Experimental: as §2

Proteus rettgeri C24 = assay: MIC, standard agar-dilution assay (Table VI); type: cell-based; settings: Providencia rettgeri, P. rettgeri C24
Experimental: as §2

[7] = tested on: Enterobacter aerogenes EB17; assay: MIC, standard agar-dilution assay (Table VI); type: cell-based; settings: Klebsiella aerogenes
Experimental: as §2

Enterobacter cloacae EB5 = assay: MIC, standard agar-dilution assay (Table VI); type: cell-based
Experimental: as §2

[8] = tested on: Pseudomonas aeruginosa Ps18; assay: MIC, standard agar-dilution assay (Table VI); type: cell-based
Experimental: as §2

Proteus inconstans PR33 = assay: MIC, standard agar-dilution assay (Table VI); type: cell-based; settings: Providencia alcalifaciens
Experimental: as §2

[9] = tested on: Pseudomonas aeruginosa X528; assay: MIC, standard agar-dilution assay (Table VI); type: cell-based; settings: X528
Experimental: as §2

[10] = tested on: Citrobacter freundii CF17; assay: MIC, standard agar-dilution assay (Table VI); type: cell-based
Experimental: as §2

[11] = tested on: Salmonella heidelberg X514; assay: MIC, standard agar-dilution assay (Table VI); type: cell-based; settings: Salmonella enterica
Experimental: as §2

[12] = tested on: Staphylococcus aureus V41; assay: MIC, standard agar-dilution assay (Table V); type: cell-based; settings: Staphylococcus aureus, V41
Experimental: as §2

[13] = tested on: Staphylococcus epidermidis EPI1; assay: MIC, standard agar-dilution assay (Table V); type: cell-based; settings: Staphylococcus epidermidis; S. epidermidis EPI1; agar dilution; read-out: MIC
Experimental: as §2

[14] = tested on: Klebsiella pneumoniae KAE; assay: MIC, standard agar-dilution assay (Table V); type: cell-based; settings: Klebsiella pneumoniae
Method in brief: as §1

Escherichia coli EC14 = assay: MIC, standard agar-dilution assay (Table V); type: cell-based; settings: Escherichia coli
Method in brief: as §1

[15] = tested on: Staphylococcus epidermidis EPI2; assay: MIC, standard agar-dilution assay (Table V); type: cell-based; settings: Staphylococcus epidermidis; S. epidermidis EPI2; agar dilution; read-out: MIC
Experimental: as §2

[16] = tested on: Staphylococcus aureus X1.1; assay: MIC, standard agar-dilution assay (Table V); type: cell-based; settings: Staphylococcus aureus, X1.1
Experimental: as §2

[17] = tested on: Staphylococcus aureus X400; assay: MIC, standard agar-dilution assay (Table V); type: cell-based; settings: Staphylococcus aureus, X400
Experimental: as §2

Streptococcus Group 9960 = assay: MIC, standard agar-dilution assay (Table V); type: cell-based; settings: GROUP9960
Experimental: as §2

[18] = tested on: Streptococcus Group D X66; assay: MIC, standard agar-dilution assay (Table V); type: cell-based
Experimental: as §2

Shigella sonnei N9 = assay: MIC, standard agar-dilution assay (Table V); type: cell-based
Method in brief: as §1

[19] = tested on: Klebsiella pneumoniae X26; assay: MIC, standard agar-dilution assay (Table V); type: cell-based; settings: Klebsiella pneumoniae, X26
Experimental: as §2

Escherichia coli N10 = assay: MIC, standard agar-dilution assay (Table V); type: cell-based; settings: Escherichia coli, N10
Method in brief: as §1

[20] = tested on: Staphylococcus aureus S13E; assay: MIC, standard agar-dilution assay (Table V); type: cell-based; settings: Staphylococcus aureus, S13E
Experimental: as §2

[21] = tested on: Haemophilus influenzae Holt; assay: MIC, standard agar-dilution assay (Table V); type: cell-based; settings: Haemophilus influenzae
Experimental: (§3) The MIC's in Tables V and VI were determined by standard agar-dilution assays. The MIC's in Table VII were obtained using a conventional broth-dilution microtiter test.

[22] = tested on: Streptococcus pyogenes C203; assay: MIC, standard agar-dilution assay (Table V); type: cell-based; settings: Streptococcus pyogenes, C203
Experimental: as §3

[23] = tested on: Haemophilus influenzae R252; assay: MIC, standard agar-dilution assay (Table V); type: cell-based; settings: Haemophilus influenzae
Experimental: as §3

[24] = C203, sc, mice, subcutaneous, doses given 1 and 4 hours postinfection, read-out: ED50, Subcutaneous

Row | SMILES | MIC [1] | MIC (Mycoplasma synoviae) | MIC (Mycoplasma hyorhinis) | MIC [2] | ED50 [3, 24] | MIC (Salmonella typhi 1335) | MIC (Proteus morganii PR15) | MIC (Proteus rettgeri PR7) | MIC (Proteus rettgeri C24) | MIC [9] | MIC [12] | MIC [13] | MIC [15] | MIC [16] | MIC [17] | MIC (Shigella sonnei N9) | MIC [19] | MIC (Escherichia coli N10) | MIC [20] | MIC [21] | further results
1 | CCC1OC(=O)CC(O)C(C)C(OC2OC(C)C(O)C(N(C)C)C2O)C(CC=O)CC(C)C(=O)C=CC(C)=CC1CSc1nnc(C)s1 (stereo not shown) [Compound 3, 23-Deoxy-23-(5-methyl-1,3,4-thiadiazol-2-yl)thio-OMT] | 6.25 µg/mL (≈ 8.78 µM) | 0.39 µg/mL (≈ 0.548 µM) | 6.25 µg/mL (≈ 8.78 µM) | 6.25 µg/mL (≈ 8.78 µM) | 22.3 mg/kg | > 128 µg/mL | 64 µg/mL (≈ 89.9 µM) | 64 µg/mL (≈ 89.9 µM) | 64 µg/mL (≈ 89.9 µM) | 64 µg/mL (≈ 89.9 µM) | 0.25 µg/mL (≈ 0.351 µM) | 0.125 µg/mL (≈ 0.176 µM) | 0.25 µg/mL (≈ 0.351 µM) | 0.25 µg/mL (≈ 0.351 µM) | 0.25 µg/mL (≈ 0.351 µM) | 64 µg/mL (≈ 89.9 µM) | 4 µg/mL (≈ 5.62 µM) | 64 µg/mL (≈ 89.9 µM) | 0.25 µg/mL (≈ 0.351 µM) | 2 µg/mL (≈ 2.81 µM) | ED50 ([3]; C203, mice, oral, doses given 1 and 4 hours postinfection, read-out: ED50, Oral): 81 mg/kg; MIC ([4]; P. aeruginosa X239, agar dilution, read-out: MIC): > 128 µg/mL; MIC ([5]; K. pneumoniae X68, agar dilution, read-out: MIC): > 128 µg/mL; MIC (Serratia marcescens SE3; S. marcescens SE3, agar dilution, read-out: MIC): > 128 µg/mL; MIC (Serratia marcescens X99; S. marcescens X99, agar dilution, read-out: MIC): > 128 µg/mL; MIC ([6]; E. aerogenes C32, agar dilution, read-out: MIC): > 128 µg/mL; MIC ([7]; E. aerogenes EB17, agar dilution, read-out: MIC): > 128 µg/mL; MIC (Enterobacter cloacae EB5; E. cloacae EB5, agar dilution, read-out: MIC): > 128 µg/mL; MIC ([8]; P. aeruginosa Ps18, agar dilution, read-out: MIC): > 128 µg/mL; MIC (Proteus inconstans PR33; P. inconstans PR33, agar dilution, read-out: MIC): > 128 µg/mL; MIC ([10]; C. freundii CF17, agar dilution, read-out: MIC): > 128 µg/mL; MIC ([11]; S. heidelberg X514, agar dilution, read-out: MIC): > 128 µg/mL; MIC ([14]; K. pneumoniae KAE, agar dilution, read-out: MIC): > 128 µg/mL; MIC (Escherichia coli EC14; E. coli EC14, agar dilution, read-out: MIC): 64 µg/mL (≈ 89.9 µM); MIC (Streptococcus Group 9960): 0.25 µg/mL (≈ 0.351 µM); MIC [18]: 0.25 µg/mL (≈ 0.351 µM); MIC [22]: 0.125 µg/mL (≈ 0.176 µM); MIC ([23]; H. influenzae R252, ampicillin-resistant strain, agar dilution, read-out: MIC): 2 µg/mL (≈ 2.81 µM)
2 | CCC1OC(=O)CC(O)C(C)C(OC2OC(C)C(O)C(N(C)C)C2O)C(CC=O)CC(C)C(=O)C=CC(C)=CC1CSc1nnnn1C (stereo not shown) [Compound 5, 23-Deoxy-23-(1-methyltetrazol-5-yl)thio-OMT] | 12.5 µg/mL (≈ 18 µM) | 0.78 µg/mL (≈ 1.12 µM) | 6.25 µg/mL (≈ 8.98 µM) | 12.5 µg/mL (≈ 18 µM) | 13.7 mg/kg | > 128 µg/mL | > 128 µg/mL | 64 µg/mL (≈ 92 µM) | 64 µg/mL (≈ 92 µM) | 64 µg/mL (≈ 92 µM) | 0.5 µg/mL (≈ 0.719 µM) | 0.25 µg/mL (≈ 0.359 µM) | 0.5 µg/mL (≈ 0.719 µM) | 0.5 µg/mL (≈ 0.719 µM) | 0.5 µg/mL (≈ 0.719 µM) | 64 µg/mL (≈ 92 µM) | 4 µg/mL (≈ 5.75 µM) | > 128 µg/mL | 0.5 µg/mL (≈ 0.719 µM) | 4 µg/mL (≈ 5.75 µM) | ED50 ([3]; C203, po, read-out: ED50, Oral): > 100 mg/kg; MIC ([4]; X239): > 128 µg/mL; MIC ([5]; X68): > 128 µg/mL; MIC (Serratia marcescens SE3; SE3): > 128 µg/mL; MIC (Serratia marcescens X99; X99): > 128 µg/mL; MIC ([6]; C32): > 128 µg/mL; MIC ([7]; EB17): > 128 µg/mL; MIC (Enterobacter cloacae EB5; EB5): > 128 µg/mL; MIC ([8]; PS18): > 128 µg/mL; MIC (Proteus inconstans PR33; PR33): > 128 µg/mL; MIC ([10]; CF17): > 128 µg/mL; MIC ([11]; X514): > 128 µg/mL; MIC [14]: > 128 µg/mL; MIC (Escherichia coli EC14; EC14): 64 µg/mL (≈ 92 µM); MIC (Streptococcus Group 9960; Streptococcus Group 9960, agar dilution, read-out: MIC): 0.5 µg/mL (≈ 0.719 µM); MIC ([18]; Streptococcus Group D X66, agar dilution, read-out: MIC): 0.5 µg/mL (≈ 0.719 µM); MIC [22]: 0.25 µg/mL (≈ 0.359 µM); MIC ([23]; R252): 2 µg/mL (≈ 2.87 µM)
